Reference: the kinase profiling compilation of Christmann-Franck et al. (2016)

Legend:
Assay in all cases: radiometric filter-binding kinase assay
[1] = tested on: RPS6KB1 (human), P23443 [T412E]
CSK (human) = CSK (human) (UniProt P41240)
SRPK1 (human) = SRPK1 (human) (UniProt Q96SB4)
MKNK1 (human) = MKNK1 (human) (UniProt Q9BUB5)
PHKG1 (human) = PHKG1 (human) (UniProt Q16816)
MAP3K11 (human) = MAP3K11 (human) (UniProt Q16584)
EPHA2 (human) = EPHA2 (human) (UniProt P29317)
[2] = tested on: SGK1 (human), O00141 [S422D]
BTK (human) = BTK (human) (UniProt Q06187)
PAK6 (human) = PAK6 (human) (UniProt Q9NQU5)
STK33 (human) = STK33 (human) (UniProt Q9BYT3)
[3] = tested on: OXSR1 (human), O95747 [T185E]
SYK (human) = SYK (human) (UniProt P43405)
ZAP70 (human) = ZAP70 (human) (UniProt P43403)
PKN2 (human) = PKN2 (human) (UniProt Q16513)
IKBKB (human) = IKBKB (human) (UniProt O14920)
TLK1 (human) = TLK1 (human) (UniProt Q9UKI8)
MAPK11 (human) = MAPK11 (human) (UniProt Q15759)
PIM1 (human) = PIM1 (human) (UniProt P11309)
JAK2 JH1 JH2 (human) = JAK2 JH1 JH2 (human) (UniProt O60674)
MARK2 (human) = MARK2 (human) (UniProt Q7KZI7)
FLT1 (human) = FLT1 (human) (UniProt P17948)
CHEK1 (human) = CHEK1 (human) (UniProt O14757)
AURKB (human) = AURKB (human) (UniProt Q96GD4)
DYRK2 (human) = DYRK2 (human) (UniProt Q92630)
HIPK2 (human) = HIPK2 (human) (UniProt Q9H2X6)
MAPK9 (human) = MAPK9 (human) (UniProt P45984)
NEK2 (human) = NEK2 (human) (UniProt P51955)
MAPK1 (human) = MAPK1 (human) (UniProt P28482)
MAPK1 (human), sequence (P28482 whole entry, looked up): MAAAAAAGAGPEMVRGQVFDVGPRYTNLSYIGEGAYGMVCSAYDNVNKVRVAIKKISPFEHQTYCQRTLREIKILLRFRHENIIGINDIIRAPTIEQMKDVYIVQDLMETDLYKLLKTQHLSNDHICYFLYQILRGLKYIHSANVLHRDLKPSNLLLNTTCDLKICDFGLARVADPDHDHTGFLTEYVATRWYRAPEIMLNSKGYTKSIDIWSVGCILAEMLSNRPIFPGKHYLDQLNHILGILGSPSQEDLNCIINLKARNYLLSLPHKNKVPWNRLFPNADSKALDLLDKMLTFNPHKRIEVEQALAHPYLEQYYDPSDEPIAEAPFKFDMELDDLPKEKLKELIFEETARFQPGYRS

MKNK1 (human), sequence (Q9BUB5 whole entry, looked up): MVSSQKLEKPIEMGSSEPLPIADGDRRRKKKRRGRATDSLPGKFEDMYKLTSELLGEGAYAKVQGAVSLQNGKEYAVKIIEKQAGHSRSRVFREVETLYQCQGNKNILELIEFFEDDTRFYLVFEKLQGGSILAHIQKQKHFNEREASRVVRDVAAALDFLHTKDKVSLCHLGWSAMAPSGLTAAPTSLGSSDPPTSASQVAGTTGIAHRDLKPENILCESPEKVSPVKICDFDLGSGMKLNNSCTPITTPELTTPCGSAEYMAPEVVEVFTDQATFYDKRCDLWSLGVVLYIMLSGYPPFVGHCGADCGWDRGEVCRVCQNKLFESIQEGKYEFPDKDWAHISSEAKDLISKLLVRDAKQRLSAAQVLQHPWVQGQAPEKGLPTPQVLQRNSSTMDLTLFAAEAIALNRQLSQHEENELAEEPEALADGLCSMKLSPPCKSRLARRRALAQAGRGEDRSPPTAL
STK33 (human), sequence (Q9BYT3 whole entry, looked up): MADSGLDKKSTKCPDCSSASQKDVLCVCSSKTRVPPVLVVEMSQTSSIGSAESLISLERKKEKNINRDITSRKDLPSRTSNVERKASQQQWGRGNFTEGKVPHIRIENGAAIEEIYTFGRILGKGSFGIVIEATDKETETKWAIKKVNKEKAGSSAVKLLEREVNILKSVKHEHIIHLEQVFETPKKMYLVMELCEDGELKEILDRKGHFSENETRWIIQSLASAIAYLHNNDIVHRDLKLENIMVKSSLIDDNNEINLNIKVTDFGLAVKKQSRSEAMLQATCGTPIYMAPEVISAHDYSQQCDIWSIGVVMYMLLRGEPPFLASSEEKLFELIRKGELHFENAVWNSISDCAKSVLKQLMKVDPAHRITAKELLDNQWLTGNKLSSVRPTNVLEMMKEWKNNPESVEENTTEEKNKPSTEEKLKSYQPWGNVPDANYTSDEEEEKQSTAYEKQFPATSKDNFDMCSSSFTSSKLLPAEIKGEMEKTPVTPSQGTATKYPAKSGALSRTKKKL
SGK1 (human), O00141 [S422D], sequence (O00141 whole entry S422D, looked up): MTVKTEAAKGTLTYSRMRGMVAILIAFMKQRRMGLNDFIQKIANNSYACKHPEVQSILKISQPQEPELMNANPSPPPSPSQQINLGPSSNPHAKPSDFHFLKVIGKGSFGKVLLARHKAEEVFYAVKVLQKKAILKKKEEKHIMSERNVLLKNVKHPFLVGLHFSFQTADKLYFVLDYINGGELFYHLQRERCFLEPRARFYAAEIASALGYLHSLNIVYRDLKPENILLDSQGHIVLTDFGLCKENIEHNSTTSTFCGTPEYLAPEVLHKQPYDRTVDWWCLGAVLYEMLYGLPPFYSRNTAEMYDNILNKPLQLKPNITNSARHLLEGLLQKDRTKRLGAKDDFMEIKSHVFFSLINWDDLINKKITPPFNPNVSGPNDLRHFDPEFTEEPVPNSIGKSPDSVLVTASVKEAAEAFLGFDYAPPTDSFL
PAK6 (human), sequence (Q9NQU5 whole entry, looked up): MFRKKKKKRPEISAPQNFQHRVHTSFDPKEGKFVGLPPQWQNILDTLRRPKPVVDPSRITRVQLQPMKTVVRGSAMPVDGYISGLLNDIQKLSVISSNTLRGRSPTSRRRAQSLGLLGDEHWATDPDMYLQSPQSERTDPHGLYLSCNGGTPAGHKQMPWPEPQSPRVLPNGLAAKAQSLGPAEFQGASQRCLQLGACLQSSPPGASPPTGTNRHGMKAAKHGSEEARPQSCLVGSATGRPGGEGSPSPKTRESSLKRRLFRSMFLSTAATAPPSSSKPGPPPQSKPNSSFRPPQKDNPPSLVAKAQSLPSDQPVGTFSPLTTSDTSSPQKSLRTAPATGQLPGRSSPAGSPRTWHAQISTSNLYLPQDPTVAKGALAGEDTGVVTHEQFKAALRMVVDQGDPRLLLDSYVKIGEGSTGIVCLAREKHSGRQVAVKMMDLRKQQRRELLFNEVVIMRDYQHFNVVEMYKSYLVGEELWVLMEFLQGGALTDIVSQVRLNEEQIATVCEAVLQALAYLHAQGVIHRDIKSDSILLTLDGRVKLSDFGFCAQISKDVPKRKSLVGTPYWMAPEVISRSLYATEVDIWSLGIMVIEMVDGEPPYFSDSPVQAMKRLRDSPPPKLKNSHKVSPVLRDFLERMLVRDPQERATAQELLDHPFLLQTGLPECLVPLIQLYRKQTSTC
IKBKB (human), sequence (O14920 whole entry, looked up): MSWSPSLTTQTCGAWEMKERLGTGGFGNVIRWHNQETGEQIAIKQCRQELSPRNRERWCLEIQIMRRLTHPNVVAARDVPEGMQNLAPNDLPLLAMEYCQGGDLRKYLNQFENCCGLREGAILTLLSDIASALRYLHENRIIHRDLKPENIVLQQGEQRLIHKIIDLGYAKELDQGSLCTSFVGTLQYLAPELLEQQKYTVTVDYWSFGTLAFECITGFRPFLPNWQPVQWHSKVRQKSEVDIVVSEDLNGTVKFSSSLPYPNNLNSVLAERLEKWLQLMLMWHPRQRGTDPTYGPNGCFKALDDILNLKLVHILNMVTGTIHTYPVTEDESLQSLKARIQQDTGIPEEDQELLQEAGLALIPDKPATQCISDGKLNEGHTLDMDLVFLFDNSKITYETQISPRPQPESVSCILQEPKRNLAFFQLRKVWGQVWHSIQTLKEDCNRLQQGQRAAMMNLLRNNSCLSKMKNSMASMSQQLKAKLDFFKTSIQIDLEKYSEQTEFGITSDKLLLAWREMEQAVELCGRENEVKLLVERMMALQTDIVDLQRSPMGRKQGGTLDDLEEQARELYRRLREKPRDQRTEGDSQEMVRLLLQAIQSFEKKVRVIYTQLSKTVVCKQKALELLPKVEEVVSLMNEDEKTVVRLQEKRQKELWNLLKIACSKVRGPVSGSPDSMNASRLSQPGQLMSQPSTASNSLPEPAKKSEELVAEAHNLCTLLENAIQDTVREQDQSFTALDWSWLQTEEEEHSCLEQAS
FLT1 (human), sequence (P17948 whole entry, looked up): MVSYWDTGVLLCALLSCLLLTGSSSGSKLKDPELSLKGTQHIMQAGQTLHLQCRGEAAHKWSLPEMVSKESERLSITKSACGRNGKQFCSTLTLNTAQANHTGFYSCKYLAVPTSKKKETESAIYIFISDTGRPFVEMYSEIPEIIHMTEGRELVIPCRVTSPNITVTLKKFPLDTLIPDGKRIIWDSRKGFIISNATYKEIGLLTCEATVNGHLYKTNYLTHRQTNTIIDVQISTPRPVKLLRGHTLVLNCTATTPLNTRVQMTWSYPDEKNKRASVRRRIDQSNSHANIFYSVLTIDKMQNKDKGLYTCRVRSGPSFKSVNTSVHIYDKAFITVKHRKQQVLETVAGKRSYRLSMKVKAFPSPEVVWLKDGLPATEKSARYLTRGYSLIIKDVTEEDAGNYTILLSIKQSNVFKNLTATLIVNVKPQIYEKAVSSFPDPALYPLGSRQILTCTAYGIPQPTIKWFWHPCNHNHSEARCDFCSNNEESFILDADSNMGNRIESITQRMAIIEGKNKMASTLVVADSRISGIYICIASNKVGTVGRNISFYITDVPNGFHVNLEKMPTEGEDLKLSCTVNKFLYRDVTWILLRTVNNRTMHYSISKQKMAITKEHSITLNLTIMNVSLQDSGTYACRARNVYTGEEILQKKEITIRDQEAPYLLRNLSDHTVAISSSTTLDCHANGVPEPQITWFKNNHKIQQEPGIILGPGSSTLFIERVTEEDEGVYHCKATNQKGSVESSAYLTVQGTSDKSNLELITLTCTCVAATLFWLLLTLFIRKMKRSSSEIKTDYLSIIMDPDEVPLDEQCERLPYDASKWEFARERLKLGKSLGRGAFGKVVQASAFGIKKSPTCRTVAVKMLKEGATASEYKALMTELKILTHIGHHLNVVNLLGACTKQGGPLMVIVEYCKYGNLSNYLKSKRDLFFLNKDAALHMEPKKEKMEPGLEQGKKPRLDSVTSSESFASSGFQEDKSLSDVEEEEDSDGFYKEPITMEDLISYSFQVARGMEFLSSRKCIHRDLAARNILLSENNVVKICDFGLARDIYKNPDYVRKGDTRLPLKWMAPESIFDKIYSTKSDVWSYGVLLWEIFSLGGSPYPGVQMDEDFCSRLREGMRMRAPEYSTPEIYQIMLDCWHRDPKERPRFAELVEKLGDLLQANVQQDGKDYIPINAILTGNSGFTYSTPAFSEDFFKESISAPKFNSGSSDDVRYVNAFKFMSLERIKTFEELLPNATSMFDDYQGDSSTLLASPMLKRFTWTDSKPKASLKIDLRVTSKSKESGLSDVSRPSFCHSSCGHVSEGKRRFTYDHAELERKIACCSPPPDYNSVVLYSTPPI
MAPK11 (human), sequence (Q15759 whole entry, looked up): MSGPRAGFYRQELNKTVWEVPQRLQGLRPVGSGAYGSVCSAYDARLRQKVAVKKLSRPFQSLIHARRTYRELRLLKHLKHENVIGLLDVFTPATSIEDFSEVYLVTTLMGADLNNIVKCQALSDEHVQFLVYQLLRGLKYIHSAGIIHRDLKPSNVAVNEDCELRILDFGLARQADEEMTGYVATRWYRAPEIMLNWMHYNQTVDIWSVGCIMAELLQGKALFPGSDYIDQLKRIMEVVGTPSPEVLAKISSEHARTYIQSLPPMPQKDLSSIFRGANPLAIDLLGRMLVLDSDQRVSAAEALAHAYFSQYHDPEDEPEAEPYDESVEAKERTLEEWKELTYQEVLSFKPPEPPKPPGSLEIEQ

residual activity ([1]; compound 0.1 µM): 107% | residual activity ([1]; compound 1.0 µM): 63.6% | residual activity ([1]; compound 10.0 µM): 12.9% | residual activity (CSK (human); compound 0.1 µM): 81.8% | residual activity (CSK (human); compound 1.0 µM): 15.4% | residual activity (CSK (human); compound 10.0 µM): 7.86% | residual activity (SRPK1 (human); compound 0.1 µM): 102% | residual activity (SRPK1 (human); compound 1.0 µM): 97.1% | residual activity (SRPK1 (human); compound 10.0 µM): 73% | residual activity (MKNK1 (human); compound 0.1 µM): 98% | residual activity (MKNK1 (human); compound 1.0 µM): 104% | residual activity (MKNK1 (human); compound 10.0 µM): 82.7% | residual activity (PHKG1 (human); compound 0.1 µM): 102% | residual activity (PHKG1 (human); compound 1.0 µM): 112% | residual activity (PHKG1 (human); compound 10.0 µM): 102% | residual activity (MAP3K11 (human); compound 0.1 µM): 95.1% | residual activity (MAP3K11 (human); compound 1.0 µM): 50.3% | residual activity (MAP3K11 (human); compound 10.0 µM): 8.66% | residual activity (EPHA2 (human); compound 0.1 µM): 74% | residual activity (EPHA2 (human); compound 1.0 µM): 19.5% | residual activity (EPHA2 (human); compound 10.0 µM): 13.7% | residual activity ([2]; compound 0.1 µM): 101% | residual activity ([2]; compound 1.0 µM): 72.8% | residual activity ([2]; compound 10.0 µM): 52.1% | residual activity (BTK (human); compound 0.1 µM): 103% | residual activity (BTK (human); compound 1.0 µM): 85.3% | residual activity (BTK (human); compound 10.0 µM): 34.2% | residual activity (PAK6 (human); compound 0.1 µM): 104% | residual activity (PAK6 (human); compound 1.0 µM): 90.4% | residual activity (PAK6 (human); compound 10.0 µM): 94% | residual activity (STK33 (human); compound 0.1 µM): 106% | residual activity (STK33 (human); compound 1.0 µM): 96.7% | residual activity (STK33 (human); compound 10.0 µM): 79.6% | residual activity ([3]; compound 0.1 µM): 54% | residual activity ([3]; compound 10.0 µM): 1.79% | residual activity (SYK (human); compound 0.1 µM): 103% | residual activity (SYK (human); compound 1.0 µM): 47.1% | residual activity (SYK (human); compound 10.0 µM): 11.5% | residual activity (ZAP70 (human); compound 0.1 µM): 92.4% | residual activity (ZAP70 (human); compound 1.0 µM): 89.5% | residual activity (ZAP70 (human); compound 10.0 µM): 59.9% | residual activity (PKN2 (human); compound 0.1 µM): 102% | residual activity (PKN2 (human); compound 1.0 µM): 93.3% | residual activity (PKN2 (human); compound 10.0 µM): 78.6% | residual activity (IKBKB (human); compound 0.1 µM): 114% | residual activity (IKBKB (human); compound 1.0 µM): 101% | residual activity (IKBKB (human); compound 10.0 µM): 44.6% | residual activity (TLK1 (human); compound 0.1 µM): 107% | residual activity (TLK1 (human); compound 1.0 µM): 92.2% | residual activity (TLK1 (human); compound 10.0 µM): 92.1% | residual activity (MAPK11 (human); compound 0.1 µM): 74.9% | residual activity (MAPK11 (human); compound 1.0 µM): 16.6% | residual activity (MAPK11 (human); compound 10.0 µM): 9.04% | residual activity (PIM1 (human); compound 0.1 µM): 120% | residual activity (PIM1 (human); compound 1.0 µM): 117% | residual activity (PIM1 (human); compound 10.0 µM): 87.4% | residual activity (JAK2 JH1 JH2 (human); compound 0.1 µM): 93.4% | residual activity (JAK2 JH1 JH2 (human); compound 1.0 µM): 92.4% | residual activity (JAK2 JH1 JH2 (human); compound 10.0 µM): 41.6% | residual activity (MARK2 (human); compound 0.1 µM): 92.7% | residual activity (MARK2 (human); compound 1.0 µM): 74.5% | residual activity (MARK2 (human); compound 10.0 µM): 85.5% | residual activity (FLT1 (human); compound 0.1 µM): 69.5% | residual activity (FLT1 (human); compound 1.0 µM): 15.2% | residual activity (FLT1 (human); compound 10.0 µM): 2.74% | residual activity (CHEK1 (human); compound 0.1 µM): 114% | residual activity (CHEK1 (human); compound 1.0 µM): 105% | residual activity (CHEK1 (human); compound 10.0 µM): 110% | residual activity (AURKB (human); compound 0.1 µM): 116% | residual activity (AURKB (human); compound 1.0 µM): 108% | residual activity (AURKB (human); compound 10.0 µM): 118% | residual activity (DYRK2 (human); compound 0.1 µM): 102% | residual activity (DYRK2 (human); compound 1.0 µM): 101% | residual activity (DYRK2 (human); compound 10.0 µM): 94.5% | residual activity (HIPK2 (human); compound 0.1 µM): 105% | residual activity (HIPK2 (human); compound 1.0 µM): 60.3% | residual activity (HIPK2 (human); compound 10.0 µM): 12.6% | residual activity (MAPK9 (human); compound 0.1 µM): 90.8% | residual activity (MAPK9 (human); compound 1.0 µM): 21.8% | residual activity (MAPK9 (human); compound 10.0 µM): 4.89% | residual activity (NEK2 (human); compound 0.1 µM): 112% | residual activity (NEK2 (human); compound 1.0 µM): 107% | residual activity (NEK2 (human); compound 10.0 µM): 93.4% | residual activity (MAPK1 (human); compound 0.1 µM): 101% | residual activity (MAPK1 (human); compound 1.0 µM): 102% | residual activity (MAPK1 (human); compound 10.0 µM): 106%
SMILES: CCN1CCN(Cc2ccc(NC(=O)c3ccc(C)c(Oc4ccnc5[nH]ccc45)c3)cc2C(F)(F)F)CC1
